Laboratory results taken from US8735364B2, “Antisense modulation of apolipoprotein B expression” (Genzyme Corporation, priority 2001, dated 2014).
Oligonucleotides are written 5' to 3', each unit as a sugar letter and its base; * is a phosphorothioate linkage, no mark a phosphodiester; rarer units and linkages stand in square brackets, end groups in braces. Plain capitals give the bases only. e = 2'-O-(2-methoxyethyl) (MOE); [5mC] = 5-methylcytosine; d = 2'-deoxy (DNA)

System: mouse apolipoprotein B mRNA
Experiment: Inhibition of mouse apolipoprotein B mRNA levels in primary hepatocytes, quantitative real-time PCR
Format: cell-based
Set-up: %INHIB of mouse apolipoprotein B mRNA levels: concentration or dose not given beside the values
Conditions: for %INHIB of mouse apolipoprotein B mRNA levels: averages from two experiments
Method: Primary mouse hepatocytes were prepared from CD-1 mice purchased from Charles River Labs (Wilmington, Mass.) and were routinely cultured in Hepatoyte Attachment Media (Gibco) supplemented with 10% Fetal Bovine Serum (Gibco/Life Technologies, Gaithersburg, Md.), 250 nM dexamethasone (Sigma), and 10 nM bovine insulin (Sigma). Cells were seeded into 96-well plates (Falcon-Primaria #3872) at a density of 10000 cells/well for use in RT-PCR analysis.
When cells reached 80% confluency, they were treated with oligonucleotide. For cells grown in 96-well plates, wells were washed once with 200 μL OPTI-MEM™-1 reduced-serum medium (Gibco BRL) and then treated with 130 μL of OPTI-MEM™-1 containing 3.75 μg/mL LIPOFECTIN™ (Gibco BRL) and the desired concentration of oligonucleotide. After 4-7 hours of treatment, the medium was replaced with fresh medium. Cells were harvested 16-24 hours after oligonucleotide treatment.
Quantitation of apolipoprotein B mRNA levels was determined by real-time quantitative PCR using the ABI PRISM™ 7700 Sequence Detection System (PE-Applied Biosystems, Foster City, Calif.) according to manufacturer's instructions. This is a closed-tube, non-gel-based, fluorescence detection system which allows high-throughput quantitation of polymerase chain reaction (PCR) products in real-time. As opposed to standard PCR, in which amplification products are quantitated after the PCR is completed, products in real-time quantitative PCR are quantitated as they accumulate. This is accomplished by including in the PCR reaction an oligonucleotide probe that anneals specifically between the forward and reverse PCR primers, and contains two fluorescent dyes. A reporter dye (e.g., JOE, FAM, or VIC, obtained from either Operon Technologies Inc., Alameda, Calif. or PE-Applied Biosystems, Foster City, Calif.) is attached to the 5′ end of the probe and a quencher dye (e.g., TAMRA, obtained from either Operon Technologies Inc., Alameda, Calif. or PE-Applied Biosystems, Foster City, Calif.) is attached to the 3′ end of the probe. When the probe and dyes are intact, reporter dye emission is quenched by the proximity of the 3′ quencher dye. During amplification, annealing of the probe to the target sequence creates a substrate that can be cleaved by the 5′-exonuclease activity of Taq polymerase. […] With each cycle, additional reporter dye molecules are cleaved from their respective probes, and the fluorescence intensity is monitored at regular intervals by laser optics built into the ABI PRISM™ 7700 Sequence Detection System. In each assay, a series of parallel reactions containing serial dilutions of mRNA from untreated control samples generates a standard curve that is used to quantitate the percent inhibition after antisense oligonucleotide treatment of test samples.
PCR reagents were obtained from PE-Applied Biosystems, Foster City, Calif. RT-PCR reactions were carried out by adding 25 μL PCR cocktail (1× TAQMAN™ buffer A, 5.5 mM MgCl2, 300 μM each of DATP, dCTP and dGTP, 600 μM of dUTP, 100 nM each of forward primer, reverse primer, and probe, 20 Units RNAse inhibitor, 1.25 Units AMPLITAQ GOLD™, and 12.5 Units MuLV reverse transcriptase) to 96 well plates containing 25 μL total RNA solution. The RT reaction was carried out by incubation for 30 minutes at 48° C. Following a 10 minute incubation at 95° C. to activate the AMPLITAQ GOLD™, 40 cycles of a two-step PCR protocol were carried out: 95° C. for 15 seconds (denaturation) followed by 60° C. for 1.5 minutes (annealing/extension).
Gene target quantities obtained by real time RT-PCR are normalized using either the expression level of GAPDH, a gene whose expression is constant, or by quantifying total RNA using RiboGreen™ (Molecular Probes, Inc. Eugene, Oreg.). GAPDH expression is quantified by real time RT-PCR, by being run simultaneously with the target, multiplexing, or separately. Total RNA is quantified using RiboGreen™ RNA quantification reagent from Molecular Probes. […]

Substance | %INHIB of mouse apolipoprotein B mRNA levels | further results
147766 (antisense eG*eG*eA*eG*e[5mC]*d[5mC]*d[5mC]*dA*d[5mC]*dG*dT*dG*d[5mC]*dT*dG*eA*eG*eA*eT*eT) [compound 147766] | 59% | –
147480 (antisense eT*e[5mC]*eT*e[5mC]*eA*d[5mC]*d[5mC]*d[5mC]*dT*d[5mC]*dA*dT*dG*d[5mC]*dT*e[5mC]*e[5mC]*eA*eT*eT) [compound 147480] | 54% | –
147770 (antisense eG*eT*eG*eT*eT*dG*dA*dA*dT*d[5mC]*d[5mC]*d[5mC]*dT*dT*dG*eA*eA*eA*eT*e[5mC]) [compound 147770] | 67% | –
147485 (antisense eA*eT*eT*eT*eG*dG*dG*dA*d[5mC]*dG*dA*dA*dT*dG*dT*eA*eT*eG*e[5mC]*e[5mC]) [compound 147485] | 64% | –
147493 (antisense eG*e[5mC]*eT*eT*e[5mC]*dA*dT*dT*dA*dT*dA*dG*dG*dA*dG*eG*eT*eG*eG*eT) [compound 147493] | 41% | –
147488 (antisense eA*eG*e[5mC]*eT*eT*dG*d[5mC]*dT*dT*dG*dT*dT*dG*dG*dG*e[5mC]*eA*e[5mC]*eG*eG) [compound 147488] | 72% | –
147761 (antisense eG*eT*eT*e[5mC]*eA*dT*dG*dG*dA*dT*dT*d[5mC]*d[5mC]*dT*dT*e[5mC]*eA*eG*eG*eA) [compound 147761] | 45% | –
147483 (antisense eA*eT*eG*eT*e[5mC]*dA*dA*dT*dG*d[5mC]*d[5mC]*dA*d[5mC]*dA*dT*eG*eT*e[5mC]*e[5mC]*eA) [compound 147483] | – | Percent Inhibition of mouse apolipoprotein B mRNA levels (50 nM): 56%; Percent Inhibition of mouse apolipoprotein B mRNA levels (150 nM): 88%; Percent Inhibition of mouse apolipoprotein B mRNA levels (300 nM): 89%
147496 (antisense eA*e[5mC]*e[5mC]*eA*eT*dG*dG*dA*dA*dA*dA*d[5mC]*dT*dG*dG*e[5mC]*eA*eA*e[5mC]*eT) [compound 147496] | 19% | –
147771 (antisense eG*eG*eT*eA*eA*dA*dG*dT*dT*dG*d[5mC]*d[5mC]*d[5mC]*dA*dT*eG*eG*e[5mC]*eT*eG) [compound 147771] | 68% | –
147495 (antisense eG*eT*eT*eA*eG*dG*dA*d[5mC]*d[5mC]*dA*dG*dG*dG*dA*dT*eT*eG*eT*eG*eA) [compound 147495] | 0% | –
147475 (antisense eA*eT*eT*eG*eT*dA*dT*dG*dT*dG*dA*dG*dA*dG*dG*eT*eG*eA*eG*eG) [compound 147475] | 79% | –
147501 (antisense e[5mC]*eT*eT*eG*eG*dT*dT*dA*dA*dA*d[5mC]*dT*dA*dA*dT*eG*eG*eT*eG*e[5mC]) [compound 147501] | 18% | –
147476 (antisense eG*eA*eG*eG*eA*dG*dA*dT*dT*dG*dG*dA*dT*d[5mC]*dT*eT*eA*eA*eG*eG) [compound 147476] | 13% | –
147768 (antisense e[5mC]*e[5mC]*e[5mC]*eA*eT*dA*dT*dG*dG*dA*dG*dA*dA*dA*dT*e[5mC]*e[5mC]*eT*eT*e[5mC]) [compound 147768] | 24% | –
147775 (antisense e[5mC]*eT*eG*eT*e[5mC]*dA*dT*dG*dA*d[5mC]*dT*dG*d[5mC]*d[5mC]*d[5mC]*eT*eT*eT*eA*e[5mC]) [compound 147775] | 52% | –
147489 (antisense e[5mC]*e[5mC]*eT*eA*eT*dA*d[5mC]*dT*dG*dG*d[5mC]*dT*dT*d[5mC]*dT*eA*eT*eG*eT*eT) [compound 147489] | 5% | –

Substance | %INHIB of mouse apolipoprotein B mRNA levels | further results
147487 (antisense eT*eT*e[5mC]*e[5mC]*e[5mC]*dA*dG*dT*d[5mC]*dA*dG*d[5mC]*dT*dT*dT*eA*eG*eT*eG*eG) [compound 147487] | 73% | –
147767 (antisense e[5mC]*eG*eT*e[5mC]*e[5mC]*dT*dT*dG*dA*dG*d[5mC]*dA*dG*dT*dG*e[5mC]*e[5mC]*e[5mC]*eG*eA) [compound 147767] | 5% | –
147776 (antisense eG*e[5mC]*eT*eT*eG*dA*dA*dG*dT*dT*d[5mC]*dA*dT*dT*dG*eA*eG*eA*eA*eT) [compound 147776] | 92% | Percent Inhibition of mouse apolipoprotein B mRNA levels (50 nM): 0%; Percent Inhibition of mouse apolipoprotein B mRNA levels (150 nM): 17%; Percent Inhibition of mouse apolipoprotein B mRNA levels (300 nM): 44%
147764 (antisense eG*eT*e[5mC]*e[5mC]*e[5mC]*dT*dG*dA*dA*dG*dA*dT*dG*dT*d[5mC]*eA*eA*eT*eG*e[5mC]) [compound 147764] | 97% | Percent Inhibition of mouse apolipoprotein B mRNA levels (50 nM): 48%; Percent Inhibition of mouse apolipoprotein B mRNA levels (150 nM): 84%; Percent Inhibition of mouse apolipoprotein B mRNA levels (300 nM): 90%
147502 (antisense eA*eT*eG*eG*eG*dA*dG*d[5mC]*dA*dT*dG*dG*dA*dG*dG*eT*eT*eG*eG*e[5mC]) [compound 147502] | 16% | –
147773 (antisense e[5mC]*eA*eT*e[5mC]*eA*dG*dA*d[5mC]*dG*dT*dG*dA*dT*dG*dT*eT*e[5mC]*e[5mC]*e[5mC]*eT) [compound 147773] | 85% | –
147762 (antisense eA*eT*eG*e[5mC]*eT*d[5mC]*d[5mC]*dA*dT*dT*d[5mC]*dT*d[5mC]*dA*d[5mC]*eA*eT*eG*e[5mC]*eT) [compound 147762] | 46% | –
147498 (antisense eT*eG*eG*eG*e[5mC]*dA*dA*d[5mC]*dG*dA*dT*dA*dT*d[5mC]*dT*eG*eA*eT*eT*eG) [compound 147498] | 0% | –
147505 (antisense eG*eG*eA*eA*eG*dT*dG*dA*dG*dA*d[5mC]*dT*dT*dT*d[5mC]*eT*eA*eA*eG*e[5mC]) [compound 147505] | 76% | –
147506 (antisense eA*eG*eG*eA*eA*dG*dG*dA*dA*d[5mC]*dT*d[5mC]*dT*dT*dG*eA*eT*eA*eT*eT) [compound 147506] | 58% | –
147494 (antisense eA*e[5mC]*eA*eA*e[5mC]*dT*dG*dG*dG*dA*dT*dA*dG*dT*dG*eT*eA*eG*e[5mC]*e[5mC]) [compound 147494] | 84% | –
147503 (antisense eA*eA*eT*eG*eG*dA*dT*dG*dA*dT*dG*dA*dA*dA*d[5mC]*eA*eG*eT*eG*eG) [compound 147503] | 26% | –
147484 (antisense eT*eT*e[5mC]*eA*eT*d[5mC]*d[5mC]*dG*dA*dG*dA*dA*dG*dT*dT*eG*eG*eG*eA*e[5mC]) [compound 147484] | 49% | –
147769 (antisense e[5mC]*eA*eT*eG*e[5mC]*d[5mC]*dT*dG*dG*dA*dA*dG*d[5mC]*d[5mC]*dA*eG*eT*eG*eT*e[5mC]) [compound 147769] | 89% | Percent Inhibition of mouse apolipoprotein B mRNA levels (50 nM): 3%; Percent Inhibition of mouse apolipoprotein B mRNA levels (150 nM): 14%; Percent Inhibition of mouse apolipoprotein B mRNA levels (300 nM): 28%
147507 (antisense eA*eT*eT*eG*eG*d[5mC]*dT*dT*d[5mC]*dA*dT*dT*dG*dG*d[5mC]*eA*eA*e[5mC]*eA*e[5mC]) [compound 147507] | 81% | –
147774 (antisense eT*eG*eG*e[5mC]*eT*dA*dG*dT*dT*dT*d[5mC]*dA*dA*dT*d[5mC]*e[5mC]*e[5mC]*e[5mC]*eT*eT) [compound 147774] | 84% | –
